Source: patent US20230331679A1, “NAPHTHALENE MONOIMIDE COMPOUNDS AND METHODS THEREOF” (JAWAHARLAL NEHRU CENTRE FOR ADVANCED SCIENTIFIC RESEARCH, priority 2020, published 2023)

Experiments:
Aβ42 fibrils = molecular target: T1, Aβ42 fibrils (Homo sapiens, UniProt P05067); assay: Dot blot analysis of Aβ42 fibrils with OC antibody; type: biochemical
T1 construct: commercially available β-amyloid peptide (1-42), human; purchased marck (so in the source) PP69-.025 mg
Description: The inhibition ability of TGR63 was further supported through dot blot ([…]) analysis which was used to evaluate the amount of Aβ42 fibrils. 10 µM of freshly prepared Aβ42 sample was incubated with TGR63 and alone independently for 48 h without shaking. The incubated samples were dotted on the PVDF membrane and allowed to dry. The PVDF membranes were blocked using 5% skimmed milk in PBS for 1 h at room temperature. The blots were washed (3 times) with 1% of Tween 20 containing PBS (PBST) for 10 min and incubated with OC (1:1000) primary antibody, specific to Aβ42 fibrils at 4° C. for 16 h. Then the unbound primary antibody was removed by PBST wash (3 times) and incubated with HRP conjugated anti-rabbit secondary antibody (Biorad, 1706515), which was diluted 10000 times. Further, nonspecific binding was removed with PBST wash and the blots were developed (chemiluminescent) and analyzed using BioRad ECL kit. […] Quantification of Aβ42 fibrils was done by firstly incubating 10 µM of Aβ42 peptide samples for 48 h at 37° C. The incubated samples were then spotted on a PVDF membrane and probed with OC (fibril specific, 1:1000) antibody to measure the amount of Aβ fibrils.

[1] = Serum stability under in vitro conditions (absorbance); type: in vitro ADME; conditions: WT mouse blood serum, 0.5, 1, 2 and 6 h at 37° C.
[2] = MALDI mass analysis of blood serum after administration; type: in vivo; conditions: WT mice, 24 h after administration
Description: Pharmacokinetics of TGR63 in wild-type (WT) mice was performed to assess its in vivo efficacy. The lethal dose 50 (LD50) of TGR63 was determined in WT mice through intraperitoneal (IP) injection following the Organisation for Economic Cooperation and Development (OECD) guidelines. […] FIG. 7A illustrates the calculation of lethal dose 50% (LD50) of TGR63 through intraperitoneal administration and is represented as table of experimental details and the final observation was done on 14th day. FIG. 7B illustrates the mortality (%) plotted against TGR63 concentration and calculation of LD50. Twenty-five WT mice were segregated in five different groups (G1-5, N= 5 per group) and administered with varying doses of TGR63 (1.7, 5.5, 17.5 56.0 and 179.0 mg/kg body weight, respectively) through IP injection and their survival was monitored for 14 days. The serum stability and blood-brain barrier (BBB) crossing ability of TGR63 were assessed through matrix-assisted laser desorption ionization (MALDI) mass spectrometry analysis of blood and brain samples of vehicle and TGR63 treated mice. […] The partition coefficient (P), a valuable physical property was calculated to predict the BBB permeability. […] The calculated positive logP value predicts the possible BBB crossing ability for TGR63. […]

APP/PS1 and WT mice = assay: Novel object identification (NOI) test; type: in vivo
Description: In OF test, all the experimental mice were individually allowed to explore a novel platform (45 X 45 cm) and their locomotion activity was monitored for 5 min (Sony HDRCX405 camera) and analyzed using the smart 3 software (Panlab; FIG. 16A). […] The anxiety behaviors of TGR63 treated mice were assessed by the time spent and the entries in the center zone (20 X 20 cm) of OF arena. […] Next, the effect of TGR63 on memory processing, viz., acquisition, consolidation and retrieval were evaluated through NOI test, which has been widely used as a tool to study the neurobiology of memory using the natural tendency of rodents to explore novel objects more than the familiar objects. All the experimental mice were familiarized with two identical objects (familiar objects) in a known habituated arena and allowed to explore a novel and familiar object after 24 and 48 h of familiarization (FIG. 16E). The exploration time with each object was measured using a stopwatch, and the discrimination index (DI) was determined using the formula, (time exploring the novel object - time exploring the familiar) / (time exploring novel + familiar) * 100. […] Similarly, the calculated DI after 48 h was lowest (-7) for AD vehicle cohort compared to both vehicle and TGR63 treated WT cohorts (+43 and +45, respectively) (FIG. 16G). […] The blocking of essential synaptic receptors (NMDA and AMPA) by Aβ aggregation species leading to synaptic dysfunction followed by impairment in hippocampal LTP formation. […] TGR63 treatment ameliorates the memory impairment in APP/PS 1 mice by reducing the toxic amyloid burden from the brain under progressive AD conditions.

T1 sequence (P05067 672-713 limits assumed): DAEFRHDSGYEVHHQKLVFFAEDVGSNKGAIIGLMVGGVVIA

CN(C)c1ccc(C#Cc2ccc3c4c(cccc24)C(=O)N(CC[N+](C)(C)C)C3=O)cc1 [TGR63, 2-(6-((4-(dimethylamino)phenyl)ethynyl)-1,3-dioxo-1H-benzo[de]isoquinolin-2(3H)-yl)-N,N,N-trimethylethan-1-aminium]
Aβ42 aggregates (quantification of dot blot) (Aβ42 fibrils; L2, 10 µM TGR63, 10 µM Aβ42, 48 h at 37° C.): ~ 90% | amount of Aβ42 fibrils decreased (blot image; Aβ42 alone 100%) (Aβ42 fibrils; L3, 50 µM TGR63, 10 µM Aβ42, 48 h): ~ 50% | Aβ42 aggregates (quantification of dot blot) (Aβ42 fibrils; L3, 50 µM TGR63, 10 µM Aβ42, 48 h at 37° C.): ~ 40% | stability in blood serum (normalized absorbance at 450 nm) [1]: confirmed the stability of TGR63 in blood serum | presence in blood (MALDI) [2]: confirmed the presence of TGR63 in blood after 24 h of administration | discrimination index (DI) (APP/PS1 and WT mice; AD TGR63 cohort, after 24 h, AD vehicle -3): +43 | discrimination index (DI) (APP/PS1 and WT mice; AD TGR63 cohort, after 48 h, AD vehicle -7): +38 | reduction of DI at 48 h compared to 24 h (APP/PS1 and WT mice; TGR63 treated WT and AD cohorts): ~ 5 units of DI | discrimination index (DI) (APP/PS1 and WT mice; WT TGR63 cohort, after 24 h, WT vehicle +49): +50 | discrimination index (DI) (APP/PS1 and WT mice; WT TGR63 cohort, after 48 h, WT vehicle +43): +45
